Legend:
Type in all cases: cell-based
CT2 [1] = molecular target: T1, CT2 (Homo sapiens, UniProt Q86VW1); assay: inhibition experiment: ^3H-carnitine uptake by oocytes injected with CT2 cRNA in the presence of unlabelled compounds; details: for inhibition of ^3H-carnitine transport by CT2: 50 nM ^3H-carnitine, 5 μM or 50 μM unlabelled compound, FIG. 4
T1 construct: a cRNA (RNA complementary to cDNA) was prepared in vitro from a plasmid containing the CT2cDNA; expressed in transfected cells; host or cells: Xenopus laevis oocytes injected with CT2 cRNA
T1 sequence (Q86VW1 1-543 isoform Q86VW1-2): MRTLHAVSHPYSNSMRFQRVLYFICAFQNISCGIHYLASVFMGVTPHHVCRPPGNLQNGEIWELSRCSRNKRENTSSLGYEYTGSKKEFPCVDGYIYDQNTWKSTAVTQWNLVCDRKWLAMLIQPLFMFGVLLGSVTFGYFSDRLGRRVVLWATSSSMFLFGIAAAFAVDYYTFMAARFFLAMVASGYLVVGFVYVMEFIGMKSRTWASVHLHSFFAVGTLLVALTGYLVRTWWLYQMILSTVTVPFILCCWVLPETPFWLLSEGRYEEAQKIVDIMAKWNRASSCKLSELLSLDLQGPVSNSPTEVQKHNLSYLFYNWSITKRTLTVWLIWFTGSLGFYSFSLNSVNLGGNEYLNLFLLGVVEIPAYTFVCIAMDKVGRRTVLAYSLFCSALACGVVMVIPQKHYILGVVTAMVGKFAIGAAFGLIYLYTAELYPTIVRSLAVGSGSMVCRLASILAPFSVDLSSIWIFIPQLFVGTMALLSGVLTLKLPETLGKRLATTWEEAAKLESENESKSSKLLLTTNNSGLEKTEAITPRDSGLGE
Description: (§1) The thus-obtained cRNA was injected into oocytes of a platanna in accordance with the already reported method (Sekine, T. et al., J. Biol. Chem., Vol. 272, pp. 18526-18529, 1997), and an uptake experiment by radioactive labeled L-carnitine was conducted on the oocytes.
(3) An influence to be exerted by D-Carnitine, which is an isomer of L-carnitine, on the L-carnitine transport by CT2 was studied.
(6) In order to study further on the substrate selectivity of CT2, in the ^3H-carnitine uptake experiment system by oocytes into which CT2cRNA was injected, various carnitine analogs were added to the system and its influences were investigated (inhibition experiment).
The ^3H-carnitine uptake experiment was performed in accordance with the above-described method using oocytes into which CT2cRNA was injected. 50 nM ^3H-carnitine uptake was measured in the presence or absence of 5 μM or 50 μM of various compounds (unlabelled).

CT2 [2] = molecular target: T1, CT2; assay: uptake experiment of radioactive labeled substrates by oocytes injected with human CT2 cRNA; details: platanna oocytes injected with CT2 cRNA; FIG. 1A
Description: It is possible to confirm the ability to transport (uptake) carnitine into a cell by expressing a cRNA prepared from the obtained CT2cDNA by introducing the cRNA into an oocyte and measuring a substrate uptake into the cell employing an ordinary uptake experiment (Sekine, T et al., Biochem. Biophis. Res. Commun., Vol. 251, pp. 586-591, 1998) wherein carnitine is used as a substrate.
Next, a cRNA (RNA complementary to cDNA) was prepared in vitro from a plasmid containing the CT2cDNA by using a T7RNA polymerase (see Sekine, T., et al., J. Biol. Chem., Vol. 272, pp. 18526-18529, 1997).
as §1
A concentration dependence of the carnitine transport by CT2 was studied through an investigation of changes in amounts of uptake of various concentration carnitines by CT2. The uptake experiment of radioactive labeled carnitines was performed by using oocytes into which the CT2cRNA was injected and in accordance with the above-described method.

[3] = substrate: C[N+](C)(C)C[C@H](O)CC(=O)[O-]; assay: as above; details: other: Michaelis-Menten kinetics, oocytes injected with CT2cRNA; FIG. 2A

Molecule	inhibition of ^3H-carnitine transport by CT2 (CT2 [1])	uptake of radioactive labeled substrate by oocytes which expressed the CT2 (CT2 [2])	also measured
CC(=O)O[C@H](CC(=O)[O-])C[N+](C)(C)C [acetyl L-carnitine]	significantly inhibited	–	–
CC[N+](CC)(CC)CC [tetraethylammnonium, tetraethyl ammonium]	did not show inhibition effect	not observed	–
C[N+](C)(C)C[C@@H](O)CC(=O)[O-] [D-carnitine]	significantly inhibited	–	inhibition of the L-carnitine transport by CT2 (concentration dependence) (CT2 [1]; oocytes injected with CT2 cRNA, FIG. 2B): inhibited the L-carnitine transport by CT2 in a concentration dependent manner; Ki (CT2 [1]; oocytes injected with CT2 cRNA, FIG. 2B, read-out: Ki value, inhibition of the L-carnitine transport by CT2): ~30.1 µM
C[N+](C)(C)CC(=O)O [betaine]	significantly inhibited	–	–
Nc1ccc(C(=O)NCC(=O)O)cc1 [paraamino hippuric acid]	did not show inhibition effect	not observed	–
C[N+](C)(C)C[C@H](O)CC(=O)[O-] [L-carnitine]	–	exhibit ^3H-L-carnitine uptake	–
CCCCCCCC(=O)O[C@H](CC(=O)[O-])C[N+](C)(C)C [octanoyl L-carnitine]	significantly inhibited	–	–
CC(=O)OC(CC(=O)[O-])C[N+](C)(C)C (racemic) [acetyl DL-carnitine]	significantly inhibited	–	–
CT2 (Homo sapiens) (protein, a cRNA (RNA complementary to cDNA) was prepared in vitro from a plasmid containing the CT2cDNA; expressed in transfected cells; host or cells: Xenopus laevis oocytes injected with CT2 cRNA) MRTLHAVSHPYSNSMRFQRVLYFICAFQNISCGIHYLASVFMGVTPHHVCRPPGNLQNGEIWELSRCSRNKRENTSSLGYEYTGSKKEFPCVDGYIYDQNTWKSTAVTQWNLVCDRKWLAMLIQPLFMFGVLLGSVTFGYFSDRLGRRVVLWATSSSMFLFGIAAAFAVDYYTFMAARFFLAMVASGYLVVGFVYVMEFIGMKSRTWASVHLHSFFAVGTLLVALTGYLVRTWWLYQMILSTVTVPFILCCWVLPETPFWLLSEGRYEEAQKIVDIMAKWNRASSCKLSELLSLDLQGPVSNSPTEVQKHNLSYLFYNWSITKRTLTVWLIWFTGSLGFYSFSLNSVNLGGNEYLNLFLLGVVEIPAYTFVCIAMDKVGRRTVLAYSLFCSALACGVVMVIPQKHYILGVVTAMVGKFAIGAAFGLIYLYTAELYPTIVRSLAVGSGSMVCRLASILAPFSVDLSSIWIFIPQLFVGTMALLSGVLTLKLPETLGKRLATTWEEAAKLESENESKSSKLLLTTNNSGLEKTEAITPRDSGLGE	–	–	Km [3]: 20.3 µM

Source: US7582447B2, “DNA encoding a testicular carnitine transporter” (Human Cell Systems, Inc., priority 2001, dated 2009)
